Patent publication US10933141B2, “Formulations with reduced degradation of polysorbate” (Genentech, Inc., priority 2015, dated 2021)
“Also recorded” adds a separate entry of the source.

What was measured:
[1] = molecular target: T1, porcine pancreatic lipase (PPL) (Sus scrofa, UniProt P00591); assay: Enzymatic degradation of PS20 by PPL, 4.5 hour digestion, PS20 by RP-ELSD; assay type: biochemical; conditions: 0.02% PS20; 15 μg/mL PPL 4.5 hours; excipient 15% w/v (methionine 10 mg/mL)
T1 construct: purchased Sigma Aldrich Inc. (St. Louis, Mo.)
T1 sequence (P00591 1-450): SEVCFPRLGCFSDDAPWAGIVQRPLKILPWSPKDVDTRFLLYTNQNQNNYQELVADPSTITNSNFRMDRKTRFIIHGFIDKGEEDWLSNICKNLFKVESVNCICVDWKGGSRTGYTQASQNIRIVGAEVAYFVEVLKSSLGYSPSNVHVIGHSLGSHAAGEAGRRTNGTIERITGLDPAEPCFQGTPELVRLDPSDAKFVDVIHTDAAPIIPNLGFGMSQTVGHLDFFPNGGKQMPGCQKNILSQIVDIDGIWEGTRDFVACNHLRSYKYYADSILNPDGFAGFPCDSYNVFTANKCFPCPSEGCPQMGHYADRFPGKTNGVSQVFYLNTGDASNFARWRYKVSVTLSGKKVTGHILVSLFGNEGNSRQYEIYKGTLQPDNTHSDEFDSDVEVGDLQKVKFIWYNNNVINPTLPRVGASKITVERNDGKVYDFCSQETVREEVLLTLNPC
Protocol: Polysorbate concentration was determined using reverse phase ultra-performance liquid chromatography using evaporative light scattering detection (RP-ELSD). Samples were analyzed using an Agilent 1100 series high performance liquid chromatography system (HPLC) fitted with a Waters Oasis MAX cartridge column (20×2.1 mm, 30 μm particle size). The HPLC system was set up with a switching valve directing column flow-through to either waste or a Varian 380-LC evaporative light scattering detector set to 100° C. The mobile phases consisted of 2% formic acid in water (Pump A) and 2% formic acid in isopropanol (Pump B). The pump gradient was isocratic at 10% pump B during equilibration, linear to 20% pump B for 1 minute, isocratic at 20% pump B for 2.4 minutes, linear to 100% pump B for 0.1 minutes, isocratic at 100% pump B for 1.1 minutes, linear to 10% pump B for 0.1 minutes, and finally isocratic at 10% pump B for 1.9 minutes. The switching valve directed column flow-through to waste at the beginning of every injection, and then directed flow to the detector after 2.4 minutes until the end of the gradient. In order to quantitate the PS20 concentration, a standard curve was generated by injecting 20 μL of solutions containing between 0% w/v and 0.4% w/v PS20.
(§1) Several excipients were tested for their ability to protect PS20 against enzymatic hydrolysis including HP-α-CD, HP-β-CD, HP-γ-CD, SBE-β-CD, PVP, PEG 1500, sucrose, and methionine. Solutions of each excipient in pH 5.5 buffer were prepared containing a final concentration of 0.02% PS20 after enzyme addition. The concentration of HP-α-CD, HP-β-CD, HP-γ-CD, and SBE-β-CD in the excipient solutions was 106 mM. […] The remaining excipients (PVP, PEG 1500, sucrose) were added to 15% w/v to match the % w/v of HP-β-CD. Samples were digested with 15 μg/mL PPL enzyme for 4.5 hours at room temperature, followed by 30 minutes of heat inactivation at 85° C. Each sample was analyzed for PS20 concentration using high performance liquid chromatography with an inline evaporative light scattering detector. Samples were then placed at 5° C. overnight to allow for the formation of particles and were analyzed for visible and subvisible particles as described previously.
(§2) The effect of the HP-β-CD concentration at different PS20 concentrations on the enzymatic degradation of PS20 was assessed to identify optimal concentrations for inhibition of enzymatic PS20 degradation. To evaluate the dependence of PS20 degradation on HP-β-CD concentration, the PS20 content was determined using RP-ELSD for triplicate samples containing different HP-β-CD concentrations at various PS20 concentrations. Samples containing 0.005% (FIG. 14A), 0.02% (FIG. 14B), 0.1% (FIG. 14C), and 0.4% PS20 (FIG. 14D) were digested using 15 μg/mL of PPL enzyme for 4.5 hours at room temperature in protein-free samples containing no excipient (control), 0, 0.5, 5, and 15% (w/v) HP-β-CD. PPL was added to each of the treatment solutions at a ratio of 75 […], with an equivalent volume of buffer added to the control solutions to determine the effect of HP-β-CD to polysorbate ratio on enzymatic degradation. Digestion was stopped by heat inactivation in an 85° C. water bath for 30 minutes. Each sample was analyzed for PS20 concentration using high performance liquid chromatography with an inline evaporative light scattering detector as described above. Samples were then placed at 5° C. overnight to allow for the formation of particles and placed on ice during analysis for visible and subvisible particles as described above.

[2] = molecular target: T1, porcine pancreatic lipase (PPL); assay: Subvisible particle formation after PPL digestion of PS20 (HIAC); assay type: physicochemical; conditions: 0.02% PS20; 15 μg/mL PPL 4.5 hours, then 5° C. overnight; excipient 15% w/v (methionine 10 mg/mL)
Protocol: Subvisible particles were measured using a HIAC 9703 particle counter equipped with an HRDL-150 detector and a 1 mL syringe. Performance of the instrument was verified with NIST-traceable 2 μm Polystyrene bead standards at 3000 counts/mL before each measurement session. The HIAC instrument was configured to a 10 mL/min flow rate, 0.1 mL tare volume, and 0.4 mL sample volume. The samples were analyzed using 4 runs of 0.4 mL sips, with the first run of each sample was discarded to prevent measurement error due to sample carryover. Results were reported as the average values for 1.4, 2, 5, 10, 15, and 25, 50 μm analysis filter sizes.
as §1, §2

effect on SVP formation (in words) [2]	Molecule	inhibitory effect on enzymatic PS20 degradation (in words) [1]
did not have an inhibitory effect	CSCC[C@H](N)C(=O)O [methionine, reference compound]	did not have an inhibitory effect
significant inhibitory effects	sulfobutyl ether β-cyclodextrin [SBE-β-CD]	significant inhibitory effects; also recorded: able to prevent enzymatic degradation of PS20
